Values of other authors, collected in article PMC3074188 (Journal of natural products, 2010).

Test system: HT-29 cell line

CC(C)C[C@H](NC(=O)[C@H](Cc1ccccc1)NC(=O)c1cnccn1)B(O)O [bortezomib]
sensitivity of HT-29 cell line (in words): sensitive
